From patent US20250092065A1, “2-(INDAZOL-5-YL)-6-(PIPERIDIN-4-YL)-1,7-NAPHTHYRIDINE DERIVATIVES AND RELATED COMPOUNDS AS MODULATORS FOR SPLICING NUCLEIC ACIDS AND FOR THE TREATMENT OF PROLIFERATIVE DISEASES” (REMIX THERAPEUTICS INC., priority 2022, published 2025)
Where two headings read alike, the source gives them in different places.

Assays:
HTT mRNA = assay: RT-qPCR splicing assay, HTT mRNA canonical (CJ) and alternative (AJ) junction; assay type: cell-based, human
Description: (§1) Compounds described herein were used to modulate RNA transcript abundance in cells. The expression of a target mRNA was measured by detecting the formation of an exon-exon junction in the canonical transcript (CJ). A compound mediated exon-inclusion event was detected by observing an increase in formation of a new junction with an alternative exon (AJ). Real-time qPCR assays were used to detect these splicing switches and interrogate the potency of various compounds towards different target genes. A high-throughput real time quantitative PCR (RT-qPCR) assay was developed to measure these two isoforms of the mRNA (CJ and AJ) for exemplary genes, such as HTT, SMN2, and MYB, together with a control housekeeping gene, GAPDH or GUSB or PPIA, used for normalization. Briefly, the A673 or K562 cell line was treated with various compounds described herein (e.g., compounds of Formula (I)). After treatment, the levels of the HTT, MYB, or SMN2 mRNA targets were determined from each sample of cell lysate by cDNA synthesis followed by qPCR.
(§2) The A673 cell line was cultured in DMEM with 10% FBS. Cells were diluted with full growth media and plated in a 96-well plate (15,000 cells in 100 ul media per well). The plate was incubated at 37° C. with 5% CO2 for 24 hours to allow cells to adhere. An 11-point 3-fold serial dilution of the compounds was made in DMSO then diluted in media in an intermediate plate. Compounds were transferred from the intermediate plate to the cell plate with the top dose at a final concentration of 10 uM in the well. Final DMSO concentration was kept at or below 0.25%. The cell plate was returned to the incubator at 37° C. with 5% CO2 for an additional 24 hours.
(§3) The K562 cell line was cultured in IMDM with 10% FBS. For K562, cells were diluted with full growth media and plated in either a 96-well plate (50,000 cells in 50 uL media per well) or a 384-well plate (8,000-40,000 cells in 45 uL media per well). An 11-point 3-fold serial dilution of the compounds were made in DMSO then diluted in media in an intermediate plate. Compound was transferred from the intermediate plate to the cell plate with the top dose at a final concentration of 10 uM in the well. Final DMSO concentration was kept at or below 0.25%. Final volume was 100 uL for 96-well plate and 50 uL for 384-well plate. The cell plate was then placed in an incubator at 37° C. with 5% CO2 for 24 hours.
(§4) The cells were then gently washed with 50 uL-100 uL cold PBS before proceeding to addition of lysis buffer. 30 uL-50 μL of room temperature lysis buffer with DNAse I (and optionally RNAsin) was added to each well. Cells were shaken/mixed thoroughly at room temperature for 5-10 minutes for lysis to take place and then 3 uL-5 μL of room temperature stop solution was added and wells were shaken/mixed again. After 2-5 minutes, the cell lysate plate was transferred to ice for RT-qPCR reaction setup. The lysates could also be frozen at −80° C. for later use.
(§5) In some cases, a direct lysis buffer was used. An appropriate volume of 3× lysis buffer (10 mM Tris, 150 mM NaCl, 1.5%-2.5% Igepal and 0.1-1 U/uL RNAsin, pH 7.4) was directly added to either K562 or A673 cells in media and mixed by pipetting 3 times. The plates were then incubated at room temperature with shaking/rocking for 20-50 minutes to allow for lysis to take place. After this time, the cell lysate plate was transferred to ice to set up for the RT-qPCR reactions. The lysates could also be frozen at −80° C. for later use.
(§6) To set up 10 uL RT-qPCR reactions, cell lysates were transferred to 384-well qPCR plates containing the master mix according to the table below. The plates were sealed, gently vortexed, and spun down before the run. The volumes were adjusted accordingly in some instances where the reaction was carried in 20 μL. The table below summarizes the components of the RT-qPCR reactions:
(§7) The RT-qPCR reaction was performed using a QuantStudio (ThermoFisher) under the following fast cycling conditions. […]

SMN2 mRNA = assay: RT-qPCR splicing assay, SMN2 mRNA; assay type: cell-based, human; conditions: canonical junction qPCR panel, Table 4, read-out: SMN2 IC50 (decrease in CJ mRNA levels)
Description: as §1, §2, §3, §4, §5, §6, §7

K562 cells = assay: Cell Titer Glo 2.0 cell viability (toxicity) assay, K562; conditions: 500 cells/well, 72 hours
MYB mRNA = assay: RT-qPCR splicing assay, MYB mRNA canonical (CJ) and alternative (AJ) junction; assay type: cell-based, human
Description: as §1, §2, §3, §4, §5, §6, §7

[1] = Homo sapiens, RT-qPCR, HTT alternative junction mRNA increase, read-out: HTT AJ (increase in alternative junction mRNA, AC50)
[2] = Homo sapiens, RT-qPCR, HTT canonical junction mRNA decrease, read-out: HTT CJ (decrease in canonical junction mRNA, IC50)
[3] = Homo sapiens, canonical junction qPCR panel, Table 4, read-out: HTT IC50 (decrease in CJ mRNA levels)
[4] = Homo sapiens, RT-qPCR, MYB alternative junction mRNA increase, read-out: MYB AJ (increase in alternative junction mRNA, AC50)
[5] = Homo sapiens, RT-qPCR, MYB canonical junction mRNA decrease, read-out: MYB CJ (decrease in canonical junction mRNA, IC50)
[6] = Homo sapiens, canonical junction qPCR panel, Table 4, read-out: MYB IC50 (decrease in CJ mRNA levels)

C[C@H]1CN(c2ccc3nc(-c4cc(F)c5nc(CO)cn5c4)ncc3c2)C[C@H](C)N1 (single isomer, unassigned) [Compound 828]
AC50 (HTT mRNA; [1]): 1000 to 10000 nM | IC50 (HTT mRNA; [2]): 100 to 1000 nM | IC50 (HTT mRNA; [3]): 100 to 1000 nM | IC50 (SMN2 mRNA; Homo sapiens): < 100 nM | Effect of Exemplary Compounds on Cell Viability, K562 (K562 cells): B (B represents 100-1000 nM) | AC50 (MYB mRNA; [4]): < 100 nM | IC50 (MYB mRNA; [5]): < 100 nM | IC50 (MYB mRNA; [6]): < 100 nM

Cn1cc2cc(-c3ccc4nc(N5CCN6CCCC6C5)ccc4n3)c(O)cc2n1 (stereo not shown) [Compound 134]
AC50 (HTT mRNA; Homo sapiens, HTT alternative junction mRNA, RT-qPCR, read-out: HTT AJ (increase in AJ mRNA, AC50)): 1000 to 10000 nM | IC50 (HTT mRNA; Homo sapiens, HTT canonical junction mRNA, RT-qPCR, read-out: HTT CJ (decrease in CJ mRNA levels, IC50)): 1000 to 10000 nM | IC50 (HTT mRNA; [3]): 1000 to 10000 nM | IC50 (SMN2 mRNA; Homo sapiens): < 100 nM | Effect of Exemplary Compounds on Cell Viability, K562 (K562 cells): C (C represents 1000-9999 nM) | AC50 (MYB mRNA; Homo sapiens, MYB alternative junction mRNA, RT-qPCR, read-out: MYB AJ (increase in AJ mRNA, AC50)): 100 to 1000 nM | IC50 (MYB mRNA; Homo sapiens, MYB canonical junction mRNA, RT-qPCR, read-out: MYB CJ (decrease in CJ mRNA levels, IC50)): 100 to 1000 nM | IC50 (MYB mRNA; [6]): 100 to 1000 nM

Cc1c(O)c(-c2ccc3nc(N4CCC(NC(C)(C)C)C4)ccc3n2)cc2cn(C)nc12 (stereo not shown) [Compound 275]
AC50 (HTT mRNA; HTT alternative junction mRNA, RT-qPCR, read-out: HTT AJ (increase in AJ mRNA, AC50)): < 100 nM | IC50 (HTT mRNA; HTT canonical junction mRNA, RT-qPCR, read-out: HTT CJ (decrease in CJ mRNA levels, IC50)): < 100 nM | IC50 (HTT mRNA; canonical junction qPCR panel, Table 4, read-out: HTT IC50 (decrease in CJ mRNA levels)): < 100 nM | IC50 (SMN2 mRNA): < 100 nM | AC50 (MYB mRNA; MYB alternative junction mRNA, RT-qPCR, read-out: MYB AJ (increase in AJ mRNA, AC50)): < 100 nM | IC50 (MYB mRNA; MYB canonical junction mRNA, RT-qPCR, read-out: MYB CJ (decrease in CJ mRNA levels, IC50)): < 100 nM | IC50 (MYB mRNA; canonical junction qPCR panel, Table 4, read-out: MYB IC50 (decrease in CJ mRNA levels)): < 100 nM

Cc1cn2cc(-c3ncc4cc(N5C[C@H](C)N[C@@H](C)C5)ccc4n3)ccc2n1 [Compound 827]
AC50 (HTT mRNA; [1]): 1000 to 10000 nM | IC50 (HTT mRNA; [2]): 1000 to 10000 nM | IC50 (HTT mRNA; [3]): 1000 to 10000 nM | IC50 (SMN2 mRNA; Homo sapiens): < 100 nM | Effect of Exemplary Compounds on Cell Viability, K562 (K562 cells): B (B represents 100-1000 nM) | AC50 (MYB mRNA; [4]): 100 to 1000 nM | IC50 (MYB mRNA; [5]): 100 to 1000 nM | IC50 (MYB mRNA; [6]): 100 to 1000 nM

C[C@H]1CN(c2ccc3nc(-c4cc(F)c5nc(CF)cn5c4)ncc3c2)C[C@H](C)N1 [Compound 829, 6-[(3S,5S)-3,5-dimethylpiperazin-1-yl]-2-[8-fluoro-2-(fluoromethyl)imidazo[1,2-a]pyridin-6-yl]quinazoline]
AC50 (HTT mRNA; [1]): 100 to 1000 nM | IC50 (HTT mRNA; [2]): 100 to 1000 nM | IC50 (HTT mRNA; [3]): 100 to 1000 nM | IC50 (SMN2 mRNA; Homo sapiens): < 100 nM | Effect of Exemplary Compounds on Cell Viability, K562 (K562 cells): B (B represents 100-1000 nM) | AC50 (MYB mRNA; [4]): 100 to 1000 nM | IC50 (MYB mRNA; [5]): < 100 nM | IC50 (MYB mRNA; [6]): < 100 nM

COc1cc(-c2ncc3cc(N4C[C@@H](C)N[C@@H](C)C4)ccc3n2)cn2cc(C)nc12 [Compound 830]
AC50 (HTT mRNA; [1]): > 10000 nM | IC50 (HTT mRNA; [2]): 1000 to 10000 nM | IC50 (HTT mRNA; [3]): 1000 to 10000 nM | IC50 (SMN2 mRNA; Homo sapiens): < 100 nM | Effect of Exemplary Compounds on Cell Viability, K562 (K562 cells): B (B represents 100-1000 nM) | AC50 (MYB mRNA; [4]): 100 to 1000 nM | IC50 (MYB mRNA; [5]): 100 to 1000 nM | IC50 (MYB mRNA; [6]): 100 to 1000 nM

Cc1cn2cc(-c3ncc4cc(N5C[C@@H](C)N[C@@H](C)C5)ccc4n3)cc(C#N)c2n1 [Compound 831]
AC50 (HTT mRNA; [1]): 1000 to 10000 nM | IC50 (HTT mRNA; [2]): 100 to 1000 nM | IC50 (HTT mRNA; [3]): 100 to 1000 nM | IC50 (SMN2 mRNA; Homo sapiens): < 100 nM | Effect of Exemplary Compounds on Cell Viability, K562 (K562 cells): B (B represents 100-1000 nM) | AC50 (MYB mRNA; [4]): < 100 nM | IC50 (MYB mRNA; [5]): < 100 nM | IC50 (MYB mRNA; [6]): < 100 nM
